Results: PMC7237710, “Thanatin Impairs Lipopolysaccharide Transport Complex Assembly by Targeting LptC–LptA Interaction and Decreasing LptA Stability” (Frontiers in Microbiology, 2020)
In brackets after ≈: the same amount, converted by molar mass. Entries after “also recorded” stand apart in the source; their conditions may differ. Residues, ends and D or L forms follow the SMILES beside them.

Tests used:
[1] = system: E. coli and other Enterobacterial species; design: method as in Zhang et al., 2019; conditions: ref Zhang et al., 2019; cited from earlier work
[2] = system: LptC–LptA interaction; conditions: yeast two-hybrid system; ref Zhang et al., 2019; cited from earlier work
[3] = system: LptC–LptAm interaction (T25LptC–TM18LptAm, CA); assay: BACTH assay, inhibition of LptC–LptAm interaction; assay type: cell-based, Escherichia coli; conditions: BTH101, 18 h, 30°C, 0.5 mM IPTG, 0.7, 1.0, 1.4 μg/mL (sub-MIC), at least eight technical replicates from two independent experiments
Experimental: (§1) To study protein–protein interactions with the BACTH system, electrocompetent BTH101 cells were co-transformed with each pair of plasmids to be tested (Figure 2A), plated onto LB plates containing selective antibiotics (100 μg/mL ampicillin and 50 μg/mL spectinomycin) and incubated at 30°C for 24–48 h. Interaction efficiencies were quantified by determining the β-galactosidase activities in 96-well microtiter plates according to a protocol adapted from [Paschos et al. (2011)]. For this measurement, at least eight clones from each plasmid combination were analyzed for β-galactosidase activity in two independent experiments. […] The β-galactosidase activity was measured from 20 μL culture diluted in 80 μL PM2 buffer (70 mM Na2HPO4. 12H20, 30 mM NaH2PO4. H2O, 1 mM MgSO4, 0.2 mM MnSO4, pH 7.0) containing 8 mg/mL ortho-nitrophenyl-β-galactoside (ONPG), 0.01% SDS, and 50 mM β-mercaptoethanol. […] The optical densities at 420 and 550 nm were recorded for each sample using a plate reader (EnSpire Multimode Plate Reader, PerkinElmer) and the specific activity was calculated with the formula: Miller units = [OD420 - (1.75 × OD550)]/[t × OD600 × (volume in mL)] × 1000, where OD600 is the optical density at 600 nm after overnight incubation and t is the time in minutes needed for color formation.

[4] = system: LptAm; conditions: SPR, Biacore T200, CM3 chip, HBS-N; peptide 0, 0.1, 1 μM; listed as Scr
Source text: (§2) Escherichia coli LptC lacking the first 23 residues of the transmembrane domain was expressed from a plasmid (LptC pQESH, QIAGEN) with an N-terminal His-Tag and purified as described ([Laguri et al., 2017]). LptC was expressed in ^15N enriched deuterated medium with specific ^13C-^1H labeling of Isoleucines δ1 and Leucine and Valine proR methyl groups according to standard protocols ([Kerfah et al., 2015]) with NMRbio precursors^1. LptAm coding for residues 28–159 followed by a […] TAG in a pET21b vector was expressed and purified as described ([Laguri et al., 2017]). Both proteins were exchanged to 50 mM Na2HPO4 pH 8.0, 150 mM NaCl buffer.
(§3) Surface plasmon resonance (SPR) experiments were performed on a Biacore T200 with a CM3 chip. HBS-P+ and HBS-N buffers (GE Healthcare) were used for immobilization and interactions, respectively. 66 Resonance units (RUs) of LptAm were immobilized on a flow cell by the amine (EDC-NHS) coupling method followed by ethanolamine saturation, with a flow cell modified only with EDC-NHS-ethanolamine as reference for subtractions. For interactions, protein and ligands were diluted in HBS-N running buffer and regeneration between injections achieved with a 30 s pulse of 10 mM HCl. Sensorgrams shown were subtracted with the reference flow cell as well as with injection of buffer alone.

[5] = system: LptC–LptAm interaction; assay: SPR, effect on LptC binding to immobilized LptAm; design: species or system Escherichia coli; conditions: peptide up to 1 μM followed by LptC injection at 10 μM, HBS-N, listed as Scr
Source text: as §2, §3

[6] = system: LptC–LptAm complex; assay: NMR, disruption of LptC–LptAm complex; assay type: binding, Escherichia coli; conditions: 2D-[1H,13C]-methyl-SOFAST, 25°C, 20 μM LptC, 40 μM LptAm, 42 μM peptide, 50 mM Na2HPO4 pH 8.0, 150 mM NaCl, 10% D2O
Experimental: Nuclear magnetic resonance experiments were recorded at 25°C on Bruker 600 MHz spectrometer equipped with a triple resonance cryoprobe. […] Unlabeled LptAm at 40 μM prepared in the exact same buffer was added to LptC to achieve 100% of LptC complexed with LptAm. Thanatin or Scr at 42 μM was added to the complex and interaction experiments were followed using 2D-[^1H, ^13C]-methyl-SOFAST experiments. NMR experiments were processed and analyzed using Topspin 3.2 and CcpNmr 2.4.

[7] = system: E. coli WT strain MG1655; assay: MIC determination, WT strain MG1655; assay type: cell-based, Escherichia coli
Experimental: (§4) The minimal inhibitory concentration (MIC) values of thanatin, thanatin scramble, and vancomycin (as a positive control) were assessed with a protocol adapted from [Wiegand et al. (2008)] using 96-well microtiter plates. Stationary phase cultures of the E. coli WT strain MG1655 ([Blattner et al., 1997]), the permeabilized mutants AS19 ([Sekiguchi and Iida, 1967]) and NR698 ([Ruiz et al., 2005]), and the BACTH strain BTH101 ([Karimova et al., 1998]; [Ouellette et al., 2017]) grown at 37°C in LB medium, were diluted in fresh medium adjusting the OD600 to a value of 0.05 and incubated in the presence of twofold decreasing concentrations of the compounds ranging from 64 μg/mL to 62.5 ng/mL. After 24 h of incubation at 37°C, the OD600 was measured by a plate reader (EnSpire Multimode Plate Reader, PerkinElmer). The MIC value was determined as the lowest concentration of compound leading to no detectable growth.

[8] = system: permeabilized E. coli mutants (AS19 and NR698); assay: MIC, permeabilized E. coli mutants; assay type: cell-based, Escherichia coli; conditions: permeabilized mutant strains; in words
Experimental: as §4

[9] = system: LptA–LptA interaction (TM25LptA–TM18LptA, AA); assay: BACTH assay, inhibition of LptA–LptA interaction; assay type: cell-based, Escherichia coli; conditions: BTH101, 18 h, 30°C, 0.5 mM IPTG, 0.7, 1.0, 1.4, 2.8 μg/mL (sub-MIC); at least eight technical replicates from two independent experiments
Experimental: as §1

[10] = system: E. coli permeabilized mutant NR698; assay: microbe, parasite or virus in culture; assay type: cell-based, Escherichia coli; conditions: 24 h
Experimental: as §4

[11] = system: E. coli BTH101; assay: microbe, parasite or virus in culture; assay type: cell-based, Escherichia coli
Experimental: as §4

[12] = system: E. coli permeabilized mutant AS19; assay: microbe, parasite or virus in culture; assay type: cell-based, Escherichia coli; conditions: 24 h
Experimental: as §4

[13] = in vivo; cited from earlier work
Source text: (§5) Due to its relevance in Gram-negative bacteria cell physiology, LPS biogenesis can be considered a promising target for the development of novel antibacterial molecules. Potent inhibitors of the lipid A biosynthesis were identified in past studies and are continuously in development ([Simpson and Trent, 2019]). Moreover, two compounds targeting the MsbA-mediated IM translocation process have been recently reported ([Ho et al., 2018]; [Zhang et al., 2018]). However, the only inhibitor of LPS biogenesis to have entered, so far, Phase III trials is Murepavadin, a macrocyclic peptidomimetic select ...

[14] = system: Pseudomonas aeruginosa LptD; conditions: ref Srinivas et al., 2010; Lehman and Grabowicz, 2019; cited from earlier work
Source text: as §5

[15] = molecular target: T1, His6-LptC_(24-191), LptC lacking the first 23 residues of the transmembrane domain (Escherichia coli, UniProt P0ADV9 24-191); assay: SPR; conditions: both partners purified
T1 sequence (looked up): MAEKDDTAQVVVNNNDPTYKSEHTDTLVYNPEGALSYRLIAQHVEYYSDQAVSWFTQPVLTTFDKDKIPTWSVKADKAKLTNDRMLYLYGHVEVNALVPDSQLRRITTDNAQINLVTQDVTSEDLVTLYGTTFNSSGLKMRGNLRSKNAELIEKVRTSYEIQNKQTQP

[16] = molecular target: immobilized LptAm; assay: SPR, Kd of LptC–LptAm; design: species or system Escherichia coli; conditions: LptC (5.6–100 μM) over immobilized LptAm, CM3 chip, HBS-N, steady-state binding levels, read-out: Kd of LptC–LptAm interaction
Source text: as §2, §3

Clc1cc2c(c3ncccc13)OCN(CCc1ccccc1)C2 [IMB-881]
bactericidal activity [1]: bactericidal activity | disruption of LptC–LptA interaction [2]: inhibiting LptC–LptA interaction; also recorded: disrupts LptC–LptA interaction

CC[C@H](C)[C@H](NC(=O)[C@H](CS)NC(=O)[C@@H](NC(=O)[C@@H](N)Cc1ccc(O)cc1)C(C)C)C(=O)N[C@@H](CCCNC(=N)N)C(=O)N[C@@H](CCSC)C(=O)N[C@@H](CC(N)=O)C(=O)N[C@@H](CCCCN)C(=O)N[C@H](C(=O)N[C@@H](CO)C(=O)N1CCC[C@H]1C(=O)N[C@@H](CCCCN)C(=O)N[C@@H](CCC(N)=O)C(=O)N[C@@H](CCCNC(=N)N)C(=O)N[C@H](C(=O)N1CCC[C@H]1C(=O)NCC(=O)NCC(=O)N[C@@H](CCCNC(=N)N)C(=O)N[C@@H](CS)C(=O)N[C@@H](CCCCN)C(=O)O)[C@@H](C)O)[C@@H](C)CC [Thanatin scramble] (H-YVCIRMNKISPKQRTPGGRCK-OH; N-terminus and C-terminus assumed)
effect on LptC–LptAm interaction (β-galactosidase activity) [3]: fails to disrupt the LptC–LptA interaction in vivo (BACTH assay) | effect on LptC–LptAm interaction (β-galactosidase activity) ([3]; listed as thanatin scramble): not capable of disrupting these periplasmic interactions in a dose-dependent manner | binding to immobilized LptAm [4]: no or little binding | effect on LptC binding to immobilized LptAm [5]: no effect on LptC binding | disruption of LptC–LptAm complex (175Ile and 184Ile δ1 methyl shifts) [6]: did not change LptC–LptAm spectra; also recorded: fails to disrupt the LptC–LptA interaction in vivo (BACTH assay) and in vitro (NMR) | disruption of LptC–LptAm complex (175Ile and 184Ile δ1 methyl shifts) ([6]; listed as thanatin scramble): no disruption of the LptC–LptAm complex | MIC ([7]; MG1655, LB, 24 h, 37°C, start OD600 0.05, twofold dilutions 64 μg/mL to 62.5 ng/mL, OD600 read-out): above 64 μg/mL | antibacterial activity ([7]; scrambled vs thanatin, in words): loses the antibacterial activity | MIC relative to WT strain / antibacterial activity [8]: no significant difference relative to the WT strain | effect on LptA–LptA interaction (β-galactosidase activity) [9]: not capable of disrupting these periplasmic interactions in a dose-dependent manner | MIC ([10]; NR698, LB, 37°C, start OD600 0.05, twofold dilutions 64 μg/mL to 62.5 ng/mL, OD600 read-out): 32 to 64 µg/mL | MIC ([11]; BTH101, LB, 24 h, 37°C, start OD600 0.05, twofold dilutions 64 μg/mL to 62.5 ng/mL, OD600 read-out): >64 µg/mL | MIC ([12]; AS19, LB, 37°C, start OD600 0.05, twofold dilutions 64 μg/mL to 62.5 ng/mL, OD600 read-out): 64 µg/mL (≈ 26.3 µM)

CN[C@H](CC(C)C)C(=O)N[C@H]1C(=O)N[C@@H](CC(N)=O)C(=O)N[C@H]2C(=O)N[C@H]3C(=O)N[C@H](C(=O)N[C@H](C(=O)O)c4cc(O)cc(O)c4-c4cc3ccc4O)[C@H](O)c3ccc(c(Cl)c3)Oc3cc2cc(c3O[C@@H]2O[C@H](CO)[C@@H](O)[C@H](O)[C@H]2O[C@H]2C[C@](C)(N)[C@H](O)[C@H](C)O2)Oc2ccc(cc2Cl)[C@H]1O [Vancomycin, reference compound]
MIC ([7]; Escherichia coli, MG1655, 24 h): > 64 µg/mL | MIC ([10]; Escherichia coli): 0.5 to 1 µg/mL (≈ 0.345 to 0.69 µM) | MIC ([11]; Escherichia coli, BTH101, 24 h): > 64 µg/mL | MIC ([12]; Escherichia coli): 4 to 8 µg/mL (≈ 2.76 to 5.52 µM)

Murepavadin
clinical toxicity [13]: nephrotoxicity | target selectivity [14]: selectively directed against Pseudomonas aeruginosa LptD

B1: LptAm, LptA residues 28-159 followed by a … tag (purified) (domain or fragment, Escherichia coli, UniProt P0ADV1 28-159, looked up)
chain: VTGDTDQPIHIESDQQSLDMQGNVVTFTGNVIVTQGTIKINADKVVVTRPGGEQGKEVIDGYGKPATFYQMQDNGKPVEGHASQMHYELAKDFVVLTGNAYLQQVDSNIKGDKITYLVKEQKMQAFSDKGKR
notes: also called LptAΔ_(160–185)-His6; monomeric version of LptA; source: E. coli BL21(DE3) (pET21b vector), purified as described (Laguri et al., 2017)
Kd [15]: 80 ± 44 µM

B2: LptC: Escherichia coli LptC lacking the first 23 residues of the transmembrane domain, with an N-terminal His-Tag (protein, UniProt P0ADV9 24-191, looked up, fragment)
chain: MAEKDDTAQVVVNNNDPTYKSEHTDTLVYNPEGALSYRLIAQHVEYYSDQAVSWFTQPVLTTFDKDKIPTWSVKADKAKLTNDRMLYLYGHVEVNALVPDSQLRRITTDNAQINLVTQDVTSEDLVTLYGTTFNSSGLKMRGNLRSKNAELIEKVRTSYEIQNKQTQP
modifications: N-terminal His-tag
notes: Escherichia coli LptC lacking the first 23 residues of the transmembrane domain, with an N-terminal His-Tag
Kd [16]: 80 ± 44 µM
